Converted amounts (≈) assume the structure as drawn. Read-outs that look alike come from different tables or passages of the source.
What was measured:
S. pyogenes GC 4563 = experiment: MIC, broth microdilution; details: Streptococcus pyogenes, GC4563, S. pyogenes GC 4563
E. coli GC 3226 = experiment: MIC, broth microdilution; details: Escherichia coli, GC3226, E. coli GC 3226
E. faecium GC 2243 = experiment: MIC, broth microdilution; details: Enterococcus faecium, GC2243, E. faecium GC 2243
S. aureus GC 6466 = experiment: MIC, broth microdilution; details: Staphylococcus aureus, GC6466, S. aureus GC 6466
E. faecium GC 4556 = experiment: MIC, broth microdilution; details: Enterococcus faecium, GC4556, E. faecium GC 4556
E. coli GC 2231 = experiment: MIC, broth microdilution; details: Escherichia coli, GC2231, E. coli GC 2231
S. aureus GC 6335 = experiment: MIC, broth microdilution; details: Staphylococcus aureus, GC6335, S. aureus GC 6335
E. coli GC 2234 = experiment: MIC, broth microdilution; details: Escherichia coli, GC2234, E. coli GC 2234
E. coli GC 2271 = experiment: MIC, broth microdilution; details: Escherichia coli, GC2271, E. coli GC 2271
P. aeruginosa GC 2214 = experiment: MIC, broth microdilution; details: Pseudomonas aeruginosa, GC2214, P. aeruginosa GC 2214
Protocol: (§1) Antimicrobial susceptibility testing. The in vitro activities of the antibiotics are determined by the broth microdilution method as recommended by the National Committee for Clinical Laboratory Standards (NCCLS) (1). Mueller-Hinton II broth (MHBII)(BBL Cockeysville, Md.) is the medium employed in the testing procedures. Microtiter plates containing serial dilutions of each antimicrobial agent are inoculated with each organism to yield the appropriate density (10^5 CFU/ml) in a 100 μl final volume. The plates are incubated for 18-22 hours at 35° C. in ambient air.
(§2) Representative compounds were first incubated in mouse serum for an hour prior to the in vitro testing against a panel of selected gram-positive and gram-negative bacteria strains. All compounds were also pre-incubated in water for an hour prior to testing as control.

E. coli GC 2236 = experiment: MIC, broth microdilution; details: Escherichia coli, GC2236, E. coli GC 2236
Staph. = experiment: Range of MIC for Staph. strains, including MRSA; details: Staphylococcus aureus, MRSA
S. aureus GC 2216 = experiment: MIC, broth microdilution; details: Staphylococcus aureus, GC2216, S. aureus GC 2216
E. coli GC 2270 = experiment: MIC, broth microdilution; details: Escherichia coli, GC2270, E. coli GC 2270
S. aureus GC 6469 = experiment: MIC, broth microdilution; details: Staphylococcus aureus, GC6469, S. aureus GC 6469
E. coli = experiment: Range of MIC for E. coli strains; details: Escherichia coli
E. coli GC 2233 = experiment: MIC, broth microdilution; details: Escherichia coli, GC2233, E. coli GC 2233
E. faecalis GC 2265 = experiment: MIC, broth microdilution; details: Enterococcus faecalis, GC2265, E. faecalis GC 2265
Protocol: as §1, §2

E. coli GC 2203 = experiment: MIC, broth microdilution; details: Escherichia coli, GC2203, E. coli GC 2203
E. coli GC 2232 = experiment: MIC, broth microdilution; details: Escherichia coli, GC2232, E. coli GC 2232
[1] = read-out: Range of MIC, Staph (Mouse Serum)
[2] = read-out: Range of MIC, Staph (Water)
[3] = read-out: Range of MIC, Staph. (mouse serum)
[4] = read-out: Range of MIC, Staph. (water)
[5] = 20 h, read-out: Range of MIC, E. coli (Mouse Serum)
[6] = read-out: Range of MIC, E. coli (mouse serum)

Q: What does the source list for CCCN(CC(=O)Nc1cc(N(C)C)c2c(c1O)C(=O)C1=C(O)[C@]3(O)C(=O)C(C(N)=O)=C(O)[C@@H](N(C)C)[C@@H]3C[C@@H]1C2)C(=O)OCOC(=O)C(C)C [Example 10, ({[(2-{[(5aR,6aS,7S,10aS)-9-(aminocarbonyl)-4,7-bis(dimethylamino)-1,8,10a,11-tetrahydroxy-10,12-dioxo-5,5a,6,6a,7,10,10a,12-octahydrotetracen-2-yl]amino}-2-oxoethyl)(propyl)amino]carbonyl}oxy)methyl 2-methylpropanoate]?
A: MIC (S. pyogenes GC 4563; Mouse Serum pre-incubation): < 0.06 µg/mL; MIC (S. pyogenes GC 4563; Water pre-incubation): < 0.06 µg/mL; MIC (E. coli GC 3226; Mouse Serum pre-incubation): 0.5 µg/mL (≈ 0.699 µM); MIC (E. coli GC 3226; Water pre-incubation): 16 µg/mL (≈ 22.4 µM); MIC (E. faecium GC 2243; Mouse Serum pre-incubation): < 0.06 µg/mL; MIC (E. faecium GC 2243; Water pre-incubation): 0.12 µg/mL (≈ 0.168 µM); MIC (S. aureus GC 6466; Mouse Serum pre-incubation): 0.12 µg/mL (≈ 0.168 µM); MIC (S. aureus GC 6466; Water pre-incubation): 0.12 µg/mL (≈ 0.168 µM); MIC (E. faecium GC 4556; Mouse Serum pre-incubation): 0.25 µg/mL (≈ 0.349 µM); MIC (E. faecium GC 4556; Water pre-incubation): 0.5 µg/mL (≈ 0.699 µM); MIC (E. coli GC 2231; Mouse Serum pre-incubation): 2 µg/mL (≈ 2.79 µM); MIC (E. coli GC 2231; Water pre-incubation): 32 µg/mL (≈ 44.7 µM); MIC (S. aureus GC 6335; Mouse Serum pre-incubation): 0.25 µg/mL (≈ 0.349 µM); MIC (S. aureus GC 6335; Water pre-incubation): 0.5 µg/mL (≈ 0.699 µM); MIC (E. coli GC 2234; Mouse Serum pre-incubation): 0.5 µg/mL (≈ 0.699 µM); MIC (E. coli GC 2234; Water pre-incubation): 8 µg/mL (≈ 11.2 µM); MIC (E. coli GC 2271; Mouse Serum pre-incubation): 0.25 µg/mL (≈ 0.349 µM); MIC (E. coli GC 2271; Water pre-incubation): 8 µg/mL (≈ 11.2 µM); MIC (P. aeruginosa GC 2214; Mouse Serum pre-incubation): 16 µg/mL (≈ 22.4 µM); MIC (P. aeruginosa GC 2214; Water pre-incubation): > 64 µg/mL; MIC (E. coli GC 2236; Mouse Serum pre-incubation): 0.5 µg/mL (≈ 0.699 µM); MIC (E. coli GC 2236; Water pre-incubation): 8 µg/mL (≈ 11.2 µM); MIC (Staph.; [1]): 0.25 to 2 µg/mL (≈ 0.349 to 2.79 µM); MIC (Staph.; [2]): 0.12 to 2 µg/mL (≈ 0.168 to 2.79 µM); MIC (Staph.; [3]): 0.25 to 2 µg/mL (≈ 0.349 to 2.79 µM); MIC (Staph.; [4]): 0.12 to 2 µg/mL (≈ 0.168 to 2.79 µM); MIC (S. aureus GC 2216; Mouse Serum pre-incubation): 0.25 µg/mL (≈ 0.349 µM); MIC (S. aureus GC 2216; Water pre-incubation): 0.5 µg/mL (≈ 0.699 µM); MIC (E. coli GC 2270; Mouse Serum pre-incubation): 0.5 µg/mL (≈ 0.699 µM); MIC (E. coli GC 2270; Water pre-incubation): 8 µg/mL (≈ 11.2 µM); MIC (S. aureus GC 6469; Mouse Serum pre-incubation): 1 µg/mL (≈ 1.4 µM); MIC (S. aureus GC 6469; Water pre-incubation): 2 µg/mL (≈ 2.79 µM); MIC (E. coli; [5]): 0.25 to 2 µg/mL (≈ 0.349 to 2.79 µM); MIC (E. coli; read-out: Range of MIC, E. coli (Water)): 4 to 32 µg/mL (≈ 5.59 to 44.7 µM); MIC (E. coli; [6]): 0.25 to 2 µg/mL (≈ 0.349 to 2.79 µM); MIC (E. coli; read-out: Range of MIC, E. coli (water)): 4 to 32 µg/mL (≈ 5.59 to 44.7 µM); MIC (E. coli GC 2233; Mouse Serum pre-incubation): 0.5 µg/mL (≈ 0.699 µM); MIC (E. coli GC 2233; Water pre-incubation): 8 µg/mL (≈ 11.2 µM); MIC (E. faecalis GC 2265; Mouse Serum pre-incubation): 1 µg/mL (≈ 1.4 µM); MIC (E. faecalis GC 2265; Water pre-incubation): 1 µg/mL (≈ 1.4 µM); MIC (E. coli GC 2203; Mouse Serum pre-incubation): 0.5 µg/mL (≈ 0.699 µM); MIC (E. coli GC 2203; Water pre-incubation): 8 µg/mL (≈ 11.2 µM); MIC (E. coli GC 2232; Mouse Serum pre-incubation): 0.5 µg/mL (≈ 0.699 µM); MIC (E. coli GC 2232; Water pre-incubation): 8 µg/mL (≈ 11.2 µM)

Q: For CCCN(CC(=O)Nc1cc(N(C)C)c2c(c1O)C(=O)C1=C(O)[C@]3(O)C(=O)C(C(N)=O)=C(O)[C@@H](N(C)C)[C@@H]3C[C@@H]1C2)C(=O)OCOC(=O)Cc1ccccc1 [Example 11, ({[(2-{[(5aR,6aS,7S,10aS)-9-(aminocarbonyl)-4,7-bis(dimethylamino)-1,8,10a,11′-tetrahydroxy-10,12-dioxo-5,5a,6,6a,7,10,10a,12-octahydrotetracen-2-yl]amino}-2-oxoethyl)(propyl)amino]carbonyl}oxy)methyl phenylacetate], which MIC (S. pyogenes GC 4563; Mouse Serum pre-incubation) is on record?
A: Its MIC is under 0.06 µg/mL.

Q: And the MIC (S. pyogenes GC 4563; Water pre-incubation)?
A: Its MIC is under 0.06 µg/mL.

Q: And the MIC (E. coli GC 3226; Mouse Serum pre-incubation)?
A: The MIC was 0.5 µg/mL (≈ 0.655 µM).

Q: What about the MIC (E. coli GC 3226; Water pre-incubation) of the same compound?
A: Its MIC is over 64 µg/mL.

Q: What about the MIC (E. faecium GC 2243; Mouse Serum pre-incubation) of the same compound?
A: The MIC was 0.12 µg/mL (≈ 0.157 µM).

Q: What about the MIC (E. faecium GC 2243; Water pre-incubation) of the same compound?
A: Its MIC is 0.25 µg/mL (≈ 0.327 µM).

Q: What about the MIC (S. aureus GC 6466; Mouse Serum pre-incubation) of the same compound?
A: The MIC was 0.25 µg/mL (≈ 0.327 µM).

Q: And the MIC (S. aureus GC 6466; Water pre-incubation)?
A: Its MIC is 0.25 µg/mL (≈ 0.327 µM).

Q: What about the MIC (E. faecium GC 4556; Mouse Serum pre-incubation) of the same compound?
A: Its MIC is 0.25 µg/mL (≈ 0.327 µM).

Q: And the MIC (E. faecium GC 4556; Water pre-incubation)?
A: The MIC was 0.5 µg/mL (≈ 0.655 µM).

Q: And the MIC (E. coli GC 2231; Mouse Serum pre-incubation)?
A: Its MIC is 2 µg/mL (≈ 2.62 µM).

Q: And the MIC (E. coli GC 2231; Water pre-incubation)?
A: The MIC was 64 µg/mL (≈ 83.8 µM).

Q: And the MIC (S. aureus GC 6335; Mouse Serum pre-incubation)?
A: The MIC was 1 µg/mL (≈ 1.31 µM).

Q: What about the MIC (S. aureus GC 6335; Water pre-incubation) of the same compound?
A: The MIC was 1 µg/mL (≈ 1.31 µM).

Q: What about the MIC (E. coli GC 2234; Mouse Serum pre-incubation) of the same compound?
A: Its MIC is 0.5 µg/mL (≈ 0.655 µM).

Q: And the MIC (E. coli GC 2234; Water pre-incubation)?
A: The MIC was 16 µg/mL (≈ 20.9 µM).

Q: And the MIC (E. coli GC 2271; Mouse Serum pre-incubation)?
A: The MIC was 0.25 µg/mL (≈ 0.327 µM).

Q: And the MIC (E. coli GC 2271; Water pre-incubation)?
A: Its MIC is 4 µg/mL (≈ 5.24 µM).

Q: And the MIC (P. aeruginosa GC 2214; Mouse Serum pre-incubation)?
A: Its MIC is 16 µg/mL (≈ 20.9 µM).

Q: What about the MIC (P. aeruginosa GC 2214; Water pre-incubation) of the same compound?
A: The MIC was over 64 µg/mL.

Q: And the MIC (E. coli GC 2236; Mouse Serum pre-incubation)?
A: The MIC was 0.5 µg/mL (≈ 0.655 µM).

Q: What about the MIC (E. coli GC 2236; Water pre-incubation) of the same compound?
A: The MIC was 8 µg/mL (≈ 10.5 µM).

Q: And the MIC (Staph.; [1])?
A: Its MIC is 0.25 to 4 µg/mL (≈ 0.327 to 5.24 µM).

Q: What about the MIC (Staph.; [2]) of the same compound?
A: Its MIC is 0.25 to 4 µg/mL (≈ 0.327 to 5.24 µM).

Q: What about the MIC (Staph.; [3]) of the same compound?
A: The MIC was 0.25 to 4 µg/mL (≈ 0.327 to 5.24 µM).

Q: What about the MIC (Staph.; [4]) of the same compound?
A: Its MIC is 0.25 to 4 µg/mL (≈ 0.327 to 5.24 µM).

Q: What about the MIC (S. aureus GC 2216; Mouse Serum pre-incubation) of the same compound?
A: The MIC was 0.5 µg/mL (≈ 0.655 µM).

Q: And the MIC (S. aureus GC 2216; Water pre-incubation)?
A: The MIC was 0.5 µg/mL (≈ 0.655 µM).

Q: What about the MIC (E. coli GC 2270; Mouse Serum pre-incubation) of the same compound?
A: The MIC was 0.5 µg/mL (≈ 0.655 µM).

Q: What about the MIC (E. coli GC 2270; Water pre-incubation) of the same compound?
A: Its MIC is 8 µg/mL (≈ 10.5 µM).

Q: What about the MIC (S. aureus GC 6469; Mouse Serum pre-incubation) of the same compound?
A: The MIC was 4 µg/mL (≈ 5.24 µM).

Q: And the MIC (S. aureus GC 6469; Water pre-incubation)?
A: The MIC was 4 µg/mL (≈ 5.24 µM).

Q: What about the MIC (E. coli; [5]) of the same compound?
A: The MIC was 0.25 to 2 µg/mL (≈ 0.327 to 2.62 µM).

Q: And the MIC (E. coli; [6])?
A: Its MIC is 0.25 to 2 µg/mL (≈ 0.327 to 2.62 µM).

Q: And the MIC (E. coli GC 2233; Mouse Serum pre-incubation)?
A: The MIC was 0.25 µg/mL (≈ 0.327 µM).

Q: What about the MIC (E. coli GC 2233; Water pre-incubation) of the same compound?
A: The MIC was 8 µg/mL (≈ 10.5 µM).

Q: What about the MIC (E. faecalis GC 2265; Mouse Serum pre-incubation) of the same compound?
A: The MIC was 2 µg/mL (≈ 2.62 µM).

Q: And the MIC (E. faecalis GC 2265; Water pre-incubation)?
A: Its MIC is 4 µg/mL (≈ 5.24 µM).

Q: And the MIC (E. coli GC 2203; Mouse Serum pre-incubation)?
A: The MIC was 0.25 µg/mL (≈ 0.327 µM).

Q: What about the MIC (E. coli GC 2203; Water pre-incubation) of the same compound?
A: The MIC was 16 µg/mL (≈ 20.9 µM).

Q: What about the MIC (E. coli GC 2232; Mouse Serum pre-incubation) of the same compound?
A: Its MIC is 1 µg/mL (≈ 1.31 µM).

Q: And the MIC (E. coli GC 2232; Water pre-incubation)?
A: The MIC was 16 µg/mL (≈ 20.9 µM).
